Where two headings read alike, the source gives them in different places.
Key:
mice = assay: Toxicity test, intraperitoneal administration in mice; type: in vivo; conditions: administered intraperitoneally, 100 mg/kg
Description: Next, toxicity test of FO-6979 substances of the present invention was explained hereinbelow.
No toxicity was noted when FO-6979-M0 substance, -M1 substance, -M2 substance, -M3 substance and -M4 substance was administered intraperitoneally in mice with 100 mg/kg.

[1] = system: mouse peritoneal macrophage; assay: Toxicity test on growth of mouse peritoneal macrophage; type: cell-based; conditions: final concentration of 50 μM
[2] = system: cholesteryl ester formation in mouse peritoneal macrophage; assay: Cholesteryl ester formation in mouse peritoneal macrophage ([14C] oleic acid incorporation); type: cell-based; conditions: for IC50: 14 hours incubation, read-out: IC50, generation of [14C] cholesteryl olate
Description: Inhibitory action of FO-6979 substances of the present invention on cholesteryl ester formation in mouse peritoneal macrophage is explained.
Cholesteryl ester formation and lipid droplets formation in mouse peritoneal macrophage were performed according to a method of Namatame et al.(J. Biochem. 125: 319–327, 1999). Macrophage isolated from mouse peritoneal fluid was suspended at 2.0×10^6 cells/ml in Dulbecco's modified Eagle's medium containing 6.8% lipoprotein deficient serum (6.8% LPDS-DMEM) and aliquots (0.25 ml) were dispensed into a 48-well microplate (Corning Co.).
(§1) The plate was incubated in a humidified 5% CO2 atmosphere incubator at 37° C. for 2 hours, after which each plate was washed with Hank's solution to remove the unattached cells. The plate was incubated in 6.8% LPDS-DMEM for 1 hour, and each one of FO-6979 substances (2.5 μl 1 methanol solution), liposome [consisting of phosphatidylcholine/phosphatidylserine/dicetylphosphate/cholesterol=10:10:2:15 (nmol) in 10 μl of 0.3 M glucose] and [1-^14C] oleic acid (5 μl, 0.05 μCi, 1 nmol) were added therein, then incubated further 14 hours.
After the incubation, supernatant was removed and the intracellular neutral lipids were extracted twice with adding hexane 0.6 ml and isopropanol 0.4 ml. The mixture was concentrated, spotted on TLC plate (silica gel plate, Merck Co., thickness 0.5 mm) and developed and with a mixed solvent of hexane/diethyl ether/acetia acid(70:30:1, v/v). The separated [^14C] cholesteryl olate and [^14C] triacylglycerol were quantitatively assayed using radio scanner (Ambis Co.).

Solubility in solvent = type: physicochemical
Description: The thus obtained FO-6979-M0 substance, -M1 substance, -M2 substance, -M3 substance and -M4 substance exist in the cultured microorganism cells and the culture filtrate. Isolation of FO-6979-M0 substance, -M1 substance, -M2 substance, -M3 substance and -M4 substance from the cultured mass can be performed by extracting the whole cultured mass with water miscible organic solvent such as aceton, distilling off the organic solvent from the extract in vacuo, and extracting the residue with water immiscible organic solvent such as ethyl acetate. In addition to the above extraction procedure, conventional methods used for isolation of fat-soluble substances such as adsorption chromatography, gel filtration chromatography, thin-layer chromatography, counter current chromatography and high performance liquid chromatography can be used optionally in combination or repeatedly to isolate and purify FO-6979-M0 substance, -M1 substance, -M2 substance, -M3 substance and -M4 substance. Physicochemical properties of FO-6979 substances of the present invention are explained hereinbelow.

[3] = molecular target: T1, acyl-CoA: cholesterol acyltransferase derived from mouse; assay: Acyl-CoA: cholesterol acyltransferase activity assay, mouse liver microsome membrane fraction, [1-14C] oleoyl-CoA; type: biochemical; conditions: 37° C. for 10 minutes, read-out: IC50, concentration which inhibits 50% of Acyl-CoA: cholesterol acyltransferase activity
T1 construct: A membrane fraction derived from mouse liver microsome was used as an enzyme origin
Description: Inhibitory activities of FO 6979-M0 substance, -M1 substance, -M2 substance, -M3 substance and -M4 substance of the present invention (hereinafter totally designates as FO-6979 substances) on acyl-CoA: cholesterol acyltransferase derived from mouse are explained hereinbelow.
Acyl-CoA: cholesterol acyltransferase activity was assayed by the modified method of Uelmen, et al. (J. Biol. Chem. 270: 26192–26201, 1995). A membrane fraction derived from mouse liver microsome was used as an enzyme origin. A mouse liver was homogenized with buffer A [50 mM Tris-HCL (pH 7.8), 1 mM EDTA and 1 mM phenylmethanesulfonyl fluoride] using Potter homogenizer (Tokyo-RIKO Inc.).
The homogenate was centrifuged at 12,000×g, and the supernatant solution was ultracentrifuged at 100,000×g to obtain the microsome fraction which was prepared for a solution with protein concentration 5 mg/ml by adding the buffer A. Assay of acyl-CoA: cholesterol acyltransferase activity was performed by adding enzyme 200 μg protein, […] bovine serumu alubumin, [1-^14C] oleoyl-CoA (final concentration 170 μM, 0.09 μCi) and each FO-6979 substance into the buffer A to prepare total 100 μl solution and incubated at 37° C. for 10 minutes.
Subsequently, the reaction was terminated by adding 0.5 ml ethanol and added 1.5 ml hexane therein, then stirred well. Hexane layer 1 ml was dried up and was spotted on TLC plate (silica gel plate, thickness 0.5 mm, Merck Co., U.S.A.) which was developed with a solvent mixture, petroleum ether/diethyl ether/acetic acid (90:10:1, v/v). The generated [^14C] cholesteryl olate was quantitative measured using radio scanner (Ambis Co.). Results indicating concentration which inhibits 50% of Acyl-CoA: cholesterol acyltransferase activity of FO-6979 substances (-M0 substance˜-M4 substance) (IC50) are shown in the following table.

[4] = system: lipid droplets formation in mouse peritoneal macrophage; assay: Lipid droplets formation in mouse peritoneal macrophage (oil red O / hematoxylin staining); type: cell-based; conditions: 20 μM, 14 hours
Description: Inhibitory action of FO-6979 substances of the present invention on lipid droplets formation in mouse peritoneal macrophage is explained.
Lipid droplets formation in mouse peritoneal macrophage was performed according to the method of Namatame et al. (J. Biochem. 125:319–327, 1999). Macrophage isolated from mouse peritoneal fluid was suspended at 2.0×10^6 cells/ml in Dulbecco's modified Eagle's medium containing 6.8% lipoprotein deficient serum (6.8% LPDS-DMEM) and aliquots (0.25 ml) were dispensed into a slide chamber (Nunc Co.).
as §1, with “chamber” for “plate”, “the chamber” for “each plate”, “FO-6979-M3 substance” for “each one of FO-6979 substances”, “μl” for “μl 1”, “solution) and” for “solution),”, “glucose]” for “glucose] and [1-^14C] oleic acid (5 μl, 0.05 μCi, 1 nmol)”
The lipid droplets and nuclei were double stained with oilred O and hematoxylin, and observed by optical microscope (Olympus OpticalCo., Japan).

[5] = Mus musculus, Peritoneal macrophage, 14 h

SMILES | toxicity in mice (mice) | toxicity for growth of mouse peritoneal macrophage [1] | IC50 [2] | Solubility in solvent: methanol, benzene, chloroform and ethyl acetate (Solubility in solvent) | Solubility in solvent: water and hexane (Solubility in solvent) | IC50 [3] | IC50 [2, 5] | inhibition at 45 µM ([2]; at 45 μM, read-out: inhibition of [14C] cholesteryl olate generation) | lipid droplets accumulated in cytoplasm, decreased to % as compared with no drug addition (control) [4]
CCCCC(C)C1CC(=O)N[C@@H](C(C)C)C(=O)N[C@@H](C)C(=O)N[C@H](CC(C)C)C(=O)O1 (stereo partly drawn) [FO-6979-M2 substance] | No toxicity | No toxicity | > 25 µM | Soluble | slightly soluble |  |  |  | 
CCCCCCC(C)C1CC(=O)N[C@@H](C(C)C)C(=O)N[C@@H](C)C(=O)N[C@H]([C@@H](C)CC)C(=O)O1 (stereo partly drawn) [FO-6979-M4 substance] | No toxicity | No toxicity |  | soluble | slightly soluble |  |  |  | 
CCCCC(C)C1CC(=O)N[C@@H](C(C)C)C(=O)N[C@@H](C)C(=O)N[C@H]([C@@H](C)CC)C(=O)O1 (stereo partly drawn) [FO-6979-M1 substance] | No toxicity | No toxicity |  | soluble | slightly soluble | > 50 µM | > 45 µM | 20% | 
CCCCC(C)C1CC(=O)N[C@@H](Cc2ccccc2)C(=O)N[C@@H](C)C(=O)N[C@H](C(C)C)C(=O)O1 (stereo partly drawn) [FO-6979-M3 substance] | No toxicity | No toxicity | > 25 µM | soluble | slightly soluble | 40 µM | 21 µM |  | about 50%
CCCCC(C)C1CC(=O)N[C@@H](C(C)C)C(=O)N[C@@H](C)C(=O)N[C@H](C(C)C)C(=O)O1 (stereo partly drawn) [FO-6979-M0 substance] | No toxicity | No toxicity |  | soluble | slight soluble | > 50 µM | > 25 µM |  | 

— patent US7192742B2, “FO-6979 substances and process for producing the same” (Gakkou Houjin Kitasato Gakeun, priority 2001, dated 2007)
